Measurements taken from patent US20090111177A1, “Maintenance of Embryonic Stem Cells by the GSK-3 Inhibitor 6-Bromoindirubin-3'-Oxime” (THE ROCKEFELLER UNIVERSITY, priority 2003, published 2009).
Entries after “also recorded” stand apart in the source; their conditions may differ.

Key:
β-catenin = β-catenin immunofluorescence confocal analysis in HESCs; assay type: cell-based, human; details: compared to non-conditioned medium treated cells, FIG. 2c
Method: (§1) Cell culture. Human embryonic stem cells (HESCs) lines were provided by WiCell Research Institute (H1 line)^5 and BresaGen Inc. (BGN1 and BGN2 lines). H1 cells were cultivated on irradiated mouse embryonic fibroblasts (MEFs) in medium consisting of 80% DMEM/F12 medium, 20% knockout serum replacement (KSR), 1 mM L-glutamine, 1% non-essential amino acids, 0.1 mM β-mercaptoethanol, and 4 ng/ml basic FGF (all from Invitrogen). […] Subsequently, HESCs were cultured on Matrigel (BD biosciences) in medium conditioned by MEFs, and passaged several times until colonies became free from contaminating MEFs as described before^9.
Immunofluorescence. […] For the quantitative image analysis, fluorescent images from triplicate samples were taken by the Discovery1 system (Universal Imaging Corporation). The fluorescent objects were selected by the threshold function and evaluated in five regions of each well by quantification of pixel intensities and the object size by using MetaMorph software (Universal Imaging Corporation).

cyclin D1 = cyclin D1 immunofluorescence in HESCs; assay type: cell-based, human; details: HESCs (BGN2); non-CM; 6-bromoindirubin-3′-oxime 1.0 μM or Wnt3a protein 100 ng; FIG. 7
Method: Immunofluorescence. HESCs were grown in conditioned medium (CM), non-CM, non-CM containing Me 6-bromoindirubin-3′-oxime (1.0 μM), non-CM containing 6-bromoindirubin-3′-oxime (1.0 μM) or non-CM containing recombinant mouse Wnt3a protein (100 ng/ml, R&D systems) for 5 d. Cells were fixed in 4% paraformaldehyde for 20 min at room temperature and incubated overnight at 4° C. with primary antibodies against cyclin D1 (Santa Cruz Technology, Santa Cruz, Calif.). Antigens were localized by using goat anti-rabbit IgG conjugated to Cy3 (Zymed laboratories).

Rex-1 promoter [1] = assay: Rex-1 luciferase reporter assay in CJ7 cells; assay type: cell-based, mouse
Description: Nat Biotechnol 20, 87-90), a small fragment containing the TCF binding sites and the cFos promoter in pTopFlash was excised by XbaI digestion, and cloned into pcDNA3-Venus in which Venus was introduced into the multiple cloning site between BamHI and EcoRI of the pcDNA3 vector (Invitrogen) whose CMV promoter was eliminated by BglII and HindIII digestion. […] To generate the Rex-1-Venus reporter construct, the Rex-1 promoter region was cloned into pcDNA3-Venus.
Luciferase assay. […] Test compounds were added 24 hrs after transfection. Following incubation for 24 hrs, cells were harvested, and analyzed by the dual luciferase reporter assay system (Promega) using Lumat (Berthold Technologies). Each value was standardized by Renilla luciferase activity.

Rex-1 promoter [2] = assay: Rex-1 YFP reporter line CJRex-Y (imaging / FACS); assay type: cell-based, mouse; details: CJRex-Y cells, 5 d
Method: Generation of stable mouse ES lines. CJ7 ES cells were transfected with pRex-1-Venus, pTY or pCAG-HygEGFP by using Lipofectamine 2000 (Invitrogen) followed by G418 (Invitrogen) selection at 200 μg/ml (for CJRex-Y or CJ-TY) or hygromycine (Invitrogen) selection at 600 μg/ml (for CJ-GFP). Two weeks after the drug selection, a number of single colonies were picked up, expanded and used for the further analyses.
FACS analysis of MESCs. We cultured CJRex-Y cells at a low density (500 cells/cm^2) on gelatin-coated 10 cm dishes in mouse ES cell medium alone, medium containing LIF, medium conditioned from wild type L cells or medium conditioned from Wnt3a-L cells (ATCC) for 5 days. The Wnt3a conditioned medium was prepared according to the provider's protocol. Cells were harvested, resuspended in mouse ES medium and subjected to FACS analysis using FACSVantage SE system (BD Biosciences).

HESCs (H1, BGN1) = assay: Feeder-free culture of HESCs, undifferentiated morphology; assay type: cell-based, human; details: feeder-free, non-conditioned medium; 7 d; 6-bromoindirubin-3′-oxime and Me analogue 2 μM, LiCl 5 mM, Wnt3a protein
Method: as §1

[3] = tested on: Oct-3/4 and Nanog transcripts; assay: Northern analysis of HESCs; assay type: cell-based, human; details: 7 d
Method: Northern analysis. Total RNA was isolated from cells by using Qiashredder and RNAeasy mini kit (Qiagen). The extracted RNA sample was quantified by UV spectrophotometer, and qualified by the RNA Nano Lab chip (Agilent Technologies). Ten μg of total RNA was electrophoresed on 1% agarose/formaldehyde gel and transferred onto a nylon membrane (Stratagene). Probes specific for human Oct-4 and human Nanog were prepared by RT-PCR using gene specific primer pairs (shown below) and the template cDNA generated from undifferentiated H1 cells, and radio-labeled with ^32P-dCTP by Prime-it probe labeling kit (Stratagene). The membrane was hybridized with the labeled probe using Perfecthybri (Sigma) and subjected to detection by Phosphor Imager (Amersham Biosciences).

H1 cells = assay: Differentiation of HESCs into neurons on PA6 stromal cells; assay type: cell-based, human; details: comparable to conditioned medium-treated cells
Description: Differentiation of ES cells into neurons. The PA6 stromal cell line (RIKEN) was used for the co-culture system (Kawasaki et al., 2002, Generation of dopaminergic neurons and pigmented epithelia from primate ES cells by stromal cell-derived inducing activity. Proc Natl Acad Sci USA 99, 1580-1585). H1 cell colonies grown on Matrigel under different conditions for 7 d were harvested and cultured (100˜200 cells/clump, approximately 5 clumps/well of a 12-well plate) on PA6 stromal cells in 90% Knockout-Dulecco's modified Eagle's medium, 10% KSR, 1 mM L-glutamine, 1% non-essential amino acids, 0.1 mM β-mercaptoethanol for 3 weeks as previously described (Sato et al., 2003, Molecular signature of human embryonic stem cells and its comparison with the mouse. Dev Biol 260, 404-413). At the end of the culture period, cells were stained with a neuron-specific antibody, Tuj-1, as shown below. The number of wells containing Tuj-1 positive neurons was determined in each condition in repeated experiments.

## O=C1Nc2cc(Br)ccc2/C1=C1/Nc2ccccc2/C1=N\O [6-bromoindirubin-3′-oxime]
β-catenin
  nuclear accumulation of β-catenin: nuclear accumulation of β-catenin
Cyclin D1
  cyclin D1 expression: upregulated; also recorded: up-regulated cyclin D1 expression
Rex-1 promoter [1]; CJ7 cells, compared to LIF-treated cells
  Rex-1 promoter activity: substantial upregulation
Rex-1 promoter [1]; cells transfected with dominant negative TCF-3
  Rex-1 transcriptional activation with dominant negative TCF-3 construct: largely abolished
Rex-1 promoter [2]; FIG. 3b
  colony morphology / cell shape: more compact than those observed in LIF-treated cells
Rex-1 promoter [2]; absence of LIF
  Rex-1 transcriptional (YFP reporter) activity: strong transcriptional activity
HESCs (H1, BGN1)
  morphology / undifferentiated phenotype of HESCs: largely retained an undifferentiated morphology
[3]
  Nanog transcript level: substantial level of Nanog transcripts was preserved
[3]; compared to conditioned medium-treated cells
  Oct-3/4 transcript level: substantial level of the Oct-3/4 transcript was maintained
H1 cells
  neurogenesis on stromal feeders (Tuj-1): robust neurogenesis
